According to patent US8791132B2, “Compounds and methods for treatment of hypertension” (Medivation Technologies, Inc., priority 2011, dated 2014):
Several values for one entry are separate records, joined by “and”; a condition that tells them apart may be missing. Identical values can stand only once. Like-named read-outs stand apart in the source and are kept apart here.

Columns and labels:
[1] = target: T1, rat adrenergic α1B receptor (Rattus norvegicus, UniProt P15823); assay: Radioligand binding, adrenergic α1B ([3H]Prazosin); details: [3H]Prazosin; for Percentage inhibition of ligand binding, Adrenergic α1B (0.1 μM) / Percentage inhibition of ligand binding, Adrenergic α1B: 0.1 µM
T1 construct: rat adrenergic α1B receptor obtained from Wistar Rat liver; from tissue; host or cells: Wistar rat liver
T1 sequence (P15823 1-515): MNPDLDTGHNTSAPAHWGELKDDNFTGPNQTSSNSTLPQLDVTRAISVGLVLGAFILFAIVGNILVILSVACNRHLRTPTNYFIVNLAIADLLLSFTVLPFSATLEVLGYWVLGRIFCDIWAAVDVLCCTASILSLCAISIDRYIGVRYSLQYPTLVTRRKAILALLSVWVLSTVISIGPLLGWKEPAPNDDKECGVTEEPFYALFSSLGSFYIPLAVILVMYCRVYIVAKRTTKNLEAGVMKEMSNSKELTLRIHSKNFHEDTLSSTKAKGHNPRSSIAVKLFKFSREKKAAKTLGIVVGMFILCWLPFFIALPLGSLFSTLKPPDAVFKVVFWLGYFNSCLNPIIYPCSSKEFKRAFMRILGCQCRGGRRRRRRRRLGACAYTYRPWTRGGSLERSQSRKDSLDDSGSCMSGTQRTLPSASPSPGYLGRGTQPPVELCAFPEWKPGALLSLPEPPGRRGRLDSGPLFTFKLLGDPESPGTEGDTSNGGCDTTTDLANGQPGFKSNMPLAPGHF
How it was run: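 Specific binding, taken as total minus that remaining with 10 μM phentolamine, is measured after filtration and counting. Rat liver receptor preparation and 0.25 nM [3H]prazosin are incubated with compound in 50 mM Tris-HCl (pH 7.4, 0.5 mM EDTA) at 25° C for 60 min. Activity is reported as percent inhibition.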

[2] = target: T2, human recombinant adrenergic α2B receptor (Homo sapiens, UniProt P18089); assay: Radioligand binding, adrenergic α2B ([3H]Rauwolscine); details: for Ki: read-out: Ki α2B
T2 construct: expressed in transfected cells; host or cells: CHO-K1
T2 sequence (P18089 1-450): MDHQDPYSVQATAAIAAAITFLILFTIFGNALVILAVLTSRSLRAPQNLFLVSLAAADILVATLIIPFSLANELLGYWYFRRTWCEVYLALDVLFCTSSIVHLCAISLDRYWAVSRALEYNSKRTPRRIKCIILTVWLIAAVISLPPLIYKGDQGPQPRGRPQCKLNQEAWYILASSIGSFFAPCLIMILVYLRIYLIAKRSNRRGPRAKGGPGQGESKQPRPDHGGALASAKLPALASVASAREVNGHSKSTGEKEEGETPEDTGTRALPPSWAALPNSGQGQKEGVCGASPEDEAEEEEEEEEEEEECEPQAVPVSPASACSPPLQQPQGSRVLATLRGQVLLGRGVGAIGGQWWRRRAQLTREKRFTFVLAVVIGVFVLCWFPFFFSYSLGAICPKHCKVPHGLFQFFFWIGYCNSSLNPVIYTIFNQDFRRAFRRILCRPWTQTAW
How it was run: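 Assay used CHO-K1-expressed human α2B receptor in Tris-HCl pH 7.4 buffer with MgCl2, EDTA and BSA; 60 min incubation at 25 °C.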

[3] = target: T3, human recombinant adrenergic α2A receptor (Homo sapiens, UniProt P08913); assay: Radioligand binding, adrenergic α2A ([3H]MK-912); details: for Percentage inhibition of ligand binding, Adrenergic α2A (0.1 μM) / inhibition at 0.03 µM / inhibition at 0.1 µM / Percentage inhibition of ligand binding, Adrenergic α2A: [3H]MK-912; for Percentage inhibition of ligand binding, Adrenergic α2A (0.1 μM) / Percentage inhibition of ligand binding, Adrenergic α2A: 0.1 µM
T3 construct: expressed in transfected cells; host or cells: insect Sf9 cells
T3 sequence (P08913 1-465): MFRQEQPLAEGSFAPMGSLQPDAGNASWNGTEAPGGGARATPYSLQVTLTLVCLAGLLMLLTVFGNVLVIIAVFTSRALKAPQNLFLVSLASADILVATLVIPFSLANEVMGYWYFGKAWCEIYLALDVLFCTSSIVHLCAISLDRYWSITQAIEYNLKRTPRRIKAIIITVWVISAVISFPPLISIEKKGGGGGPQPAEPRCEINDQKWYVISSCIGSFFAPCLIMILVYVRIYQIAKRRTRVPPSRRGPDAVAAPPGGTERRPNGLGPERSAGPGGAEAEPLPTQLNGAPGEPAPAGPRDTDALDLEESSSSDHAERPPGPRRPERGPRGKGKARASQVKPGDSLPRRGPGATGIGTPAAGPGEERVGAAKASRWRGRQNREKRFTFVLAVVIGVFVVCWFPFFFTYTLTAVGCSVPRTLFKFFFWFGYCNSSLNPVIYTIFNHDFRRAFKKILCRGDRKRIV
How it was run: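 Receptor expressed in Sf9 cells, in 50 mM Tris-HCl pH 7.4, 12.5 mM MgCl2, 2 mM EDTA; compounds incubated with 1 nM [3H]MK-912 for 60 min at 25 °C.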

[4] = compound at 0.03 μM, repeat datapoints each shown
[5] = read-out: Percentage inhibition of ligand binding, Adrenergic α1B (0.03 μM), compound at 0.03 μM, repeat datapoints each shown
[6] = read-out: Percentage inhibition of ligand binding, Adrenergic α1B (0.1 μM), compound at 0.1 μM, repeat datapoints each shown
[7] = compound at 0.1 μM, [3H]Rauwolscine, repeat datapoints each shown
[8] = read-out: Percentage inhibition of ligand binding, Adrenergic α2B (0.03 μM), compound at 0.03 μM, [3H]Rauwolscine, repeat datapoints each shown
[9] = read-out: Percentage inhibition of ligand binding, Adrenergic α2B (0.1 μM), compound at 0.1 μM, [3H]Rauwolscine, repeat datapoints each shown
[10] = compound at 0.1 μM, repeat datapoints each shown
[11] = read-out: Percentage inhibition of ligand binding, Adrenergic α2A (0.03 μM), compound at 0.03 μM, repeat datapoints each shown
[12] = read-out: Percentage inhibition of ligand binding, Adrenergic α2A (0.1 μM), compound at 0.1 μM, repeat datapoints each shown
[13] = compound at 0.03 μM, repeat assays, each datapoint shown, read-out: Percentage inhibition of ligand binding, Adrenergic α1B
[14] = compound at 0.1 μM, repeat assays, each datapoint shown
[15] = compound at 0.1 μM, repeat assays, each datapoint shown, read-out: Percentage inhibition of ligand binding, Adrenergic α1B
[16] = compound at 0.03 μM, [3H]Rauwolscine, repeat assays, each datapoint shown, 0.03 µM
[17] = compound at 0.03 μM, [3H]Rauwolscine, repeat assays, each datapoint shown, read-out: Percentage inhibition of ligand binding, Adrenergic α2B
[18] = compound at 0.1 μM, [3H]Rauwolscine, repeat assays, each datapoint shown, read-out: Percentage inhibition of ligand binding, Adrenergic α2B
[19] = compound at 0.1 μM, repeat assays, each datapoint shown, read-out: Percentage inhibition of ligand binding, Adrenergic α2A

Compound | inhibition at 0.03 µM [1, 5] [%] | inhibition at 0.1 µM [1, 6] [%] | Percentage inhibition of ligand binding, Adrenergic α2B (0.1 μM) [2, 7] [%] | Ki [2] | inhibition at 0.03 µM [2, 8] [%] | inhibition at 0.1 µM [2, 9] [%] | Percentage inhibition of ligand binding, Adrenergic α2A (0.1 μM) [3, 10] | Percentage inhibition of ligand binding, Adrenergic α1B (0.1 μM) [1, 10] | inhibition at 0.1 µM [3, 12] [%] | also measured
CN1CCc2c(c3cccc(Cl)c3n2CCc2ccccc2)C1 [compound 216] | 34 | 65 | 106 | 0.95 nM | 98 | 103 | 76% and 98% | – | – | Percentage inhibition of ligand binding, Adrenergic α1B (0.03 μM) [1, 4]: 47%; Ki [3]: 9.59 nM; inhibition at 0.03 µM [3, 11]: 58%
C/C(=C\n1c2c(c3cc(C)ccc31)CN(C)CC2)c1sccc1C [compound 189] | 26 | – | 107 | 0.86 nM | 96 | 104 | 86% | 31% and 55% | 81 | Ki [3]: 2.86 nM; inhibition at 0.03 µM [3, 11]: 71%
CN1CCc2c(c3cc(Cl)ccc3n2CC(O)c2ccncc2)C1 (single isomer, unassigned) [4a] | – | – | – | 0.64 nM | – | – | – | – | – | inhibition at 0.03 µM [1, 13]: 25%; Percentage inhibition of ligand binding, Adrenergic α1B [1, 14]: 57%; inhibition at 0.1 µM [1, 15]: 52%; Percentage inhibition of ligand binding, Adrenergic α2B [2, 16]: 103%; inhibition at 0.03 µM [2, 17]: 99%; inhibition at 0.1 µM [2, 18]: 104%; Ki [3]: 176 nM; inhibition at 0.03 µM ([3]; compound at 0.03 μM, repeat assays, each datapoint shown, read-out: Percentage inhibition of ligand binding, Adrenergic α2A): 5%; Percentage inhibition of ligand binding, Adrenergic α2A [3, 14]: 24%; inhibition at 0.1 µM [3, 19]: 19%
CN1CCc2c(n(CC(O)c3ccncc3)c3ccc(Cl)cc23)C1 (single isomer, unassigned) [41a] | – | – | – | – | – | – | – | – | – | Percentage inhibition of ligand binding, Adrenergic α1B [1, 14]: 43%; Percentage inhibition of ligand binding, Adrenergic α2B [2, 16]: 14%; Percentage inhibition of ligand binding, Adrenergic α2A [3, 14]: −9%
Cc1ccc(C(O)Cn2c3c(c4cc(C)ccc42)CN(C)CC3)cc1 (racemic) [compound 183, racemic-2-(1,2,3,4-tetrahydro-2,8-dimethylpyrido[4,3-b]indol-5-yl)-1-p-tolylethanol] | 50 | 71 | – | – | 68 | 80 | – | – | 93 | –
CCN1CCc2c(c3cc(C)ccc3n2CCc2ccccc2)C1 [compound 201] | 22 | 50 | – | – | 16 | 36 | – | – | 67 | –
Cc1cnc2c(c1)c1c(n2CCc2ccc(C)nc2)CCN(C)C1 [II-110, 3,6-dimethyl-9-(2-(6-methylpyridin-3-yl)ethyl)-6,7,8,9-tetrahydro-5H-pyrrolo[2,3-b:4,5-c′]dipyridine] | – | 25 | – | – | 11 | 47 | 2% | 36% | 1 | –
Cc1ccc2c(c1)c1c(n2CC(C)(O)c2ccc(O)cc2)CCN(C)C1 (centres unmarked) [compound 98] | – | 81 | 103 | – | – | 96 | 32% | 83% | 26 | –
Cc1ccc2c(c1)c1c(n2CC(O)c2ccc(C(N)=O)nc2)CCN(C)C1 (single isomer, unassigned) [144b, 5-[2-(2,8-dimethyl-1,2,3,4-tetrahydro-pyrido[4,3-b]indol-5-yl)-1-hydroxy-ethyl]-pyridine-2-carboxylic acid amide] | 28 | 53 | 102 | 1.7 nM and 2.36 nM | 83 | 100 | 4% | 60% and 66% | 3 | Percentage inhibition of ligand binding, Adrenergic α1B (0.03 μM) [1, 4]: 36%; Percentage inhibition of ligand binding, Adrenergic α2B (0.03 μM) ([2]; compound at 0.03 μM, [3H]Rauwolscine, repeat datapoints each shown, 0.03 µM): 85% and 87%
CCN1CCc2c(c3cc(C)ccc3n2CCc2ccncc2)C1 [compound 85] | – | – | – | – | – | – | – | – | – | inhibition at 0.03 µM [1, 13]: -3%; inhibition at 0.1 µM [1, 15]: 26%; inhibition at 0.03 µM [2, 17]: 40%; inhibition at 0.1 µM [2, 18]: 60%; inhibition at 0.1 µM [3, 19]: 12%
Cc1ccc(CCn2c3c(c4ccccc42)CN(C)CC3)cc1 [compound 181, 2,3,4,5-Tetrahydro-2-methyl-5-(4-methylphenethyl)-1H-pyrido[4,3-b]indole] | -4 | 30 | – | – | 70 | 92 | – | – | 89 | –
